In ChEMBL document CHEMBL4334431, “Gramicidin S-inspired antimicrobial cyclodextrin to disrupt gram-negative and gram-positive bacterial membranes” (Medchemcomm, 2019):
In brackets after ≈: the same amount, converted by molar mass.

Legend:
[1] = test system: Pseudomonas aeruginosa; assay: Antibacterial activity against carbapenem-reistant Pseudomonas aeruginosa PAO1 assessed as bacterial growth inhibition after 20 hrs by liquid microdilution method; assay type: functional; conditions: PAO1, 20 h
[2] = test system: Pseudomonas aeruginosa; assay: Antibacterial activity against Pseudomonas aeruginosa PAO1 assessed as bacterial growth inhibition after 20 hrs by liquid microdilution method; assay type: functional; conditions: PAO1, 20 h
[3] = test system: Staphylococcus aureus; assay: Antibacterial activity against Staphylococcus aureus FDA 209P assessed as bacterial growth inhibition after 20 hrs by liquid microdilution method; assay type: functional
[4] = test system: Escherichia coli; assay: Antimicrobial activity against […] at sub-MIC treated by resistant development assay; assay type: functional; conditions: K-12 substr. W3110
[5] = Partition coefficient, log P of compound; assay type: physicochemical; conditions: octanol/water
[6] = test system: Escherichia coli; assay: Antimicrobial activity against ESBL-producing Escherichia coli assessed as bacterial growth inhibition after 20 hrs by liquid microdilution method; assay type: functional
[7] = test system: Escherichia coli; assay: Antimicrobial activity against carbapenem-resistant Escherichia coli assessed as bacterial growth inhibition after 20 hrs by liquid microdilution method; assay type: functional
[8] = Haemolytic activity in rabbit RBCs at 50 uM relative to control; assay type: ADME, cell-based, Oryctolagus cuniculus, Erythrocyte; conditions: rabbit red blood cells (erythrocytes), read-out: Activity
[9] = test system: Staphylococcus aureus; assay: Antibacterial activity against Staphylococcus aureus FDA 209P at sub-MIC treated over 11 serial passages by resistant development assay; assay type: functional
[10] = test system: Escherichia coli; assay: Antibacterial activity against Escherichia coli K12 W3110 assessed as bacterial growth inhibition after 20 hrs by liquid microdilution method; assay type: functional; conditions: K-12 substr. W3110, 20 h
[11] = test system: Erythrocyte; assay: Haemolytic activity in rabbit RBCs at 10 times MIC; assay type: ADME, cell-based, Oryctolagus cuniculus
[12] = test system: Salmonella typhimurium; assay: Antibacterial activity against Salmonella typhimurium LT2 assessed as bacterial growth inhibition after 20 hrs by liquid microdilution method; assay type: functional, Salmonella enterica subsp. enterica serovar Typhimurium; conditions: Salmonella enterica, LT2, 20 h
[13] = test system: Bacillus subtilis; assay: Antibacterial activity against Bacillus subtilis 168 assessed as bacterial growth inhibition after 20 hrs by liquid microdilution method; assay type: functional; conditions: Bacillus subtilis, 168, 20 h

Compound CCC(=O)O[C@@H]1[C@@H](OC(=O)CC)[C@H]2O[C@H]3[C@H](OC(=O)CC)[C@@H](OC(=O)CC)[C@@H](O[C@H]4[C@H](OC(=O)CC)[C@@H](OC(=O)CC)[C@@H](O[C@H]5[C@H](OC(=O)CC)[C@@H](OC(=O)CC)[C@@H](O[C@H]6[C@H](OC(=O)CC)[C@@H](OC(=O)CC)[C@@H](O[C@H]7[C@H](OC(=O)CC)[C@@H](OC(=O)CC)[C@@H](O[C@@H]1[C@@H](Cn1cc(CN)nn1)O2)O[C@@H]7Cn1cc(CN)nn1)O[C@@H]6Cn1cc(CN)nn1)O[C@@H]5Cn1cc(CN)nn1)O[C@@H]4Cn1cc(CN)nn1)O[C@@H]3Cn1cc(CN)nn1 has an MIC [1] of 5 µM (≈ 10.6 µg/mL), an MIC [2] of 3 µM (≈ 6.38 µg/mL) and an MIC [3] of 6 µM (≈ 12.8 µg/mL). It also gave an MIC [4] of 3 to 6 µM (≈ 6.38 to 12.8 µg/mL), a logP [5] of -0.89 and an MIC [6] of 5 µM (≈ 10.6 µg/mL). It also gave an MIC [7] of 5 µM (≈ 10.6 µg/mL), a hemolysis at 50 µM [8] of 3% and an MIC [9] of 6 µM (≈ 12.8 µg/mL). The MIC [10] was 3 µM (≈ 6.38 µg/mL), the Activity [11] was “Non-Toxic” and the MIC [12] was 6 µM (≈ 12.8 µg/mL). The MIC [13] was 3 µM (≈ 6.38 µg/mL).
